# From publication PMC10010643 (Cancer Chemotherapy and Pharmacology, 2023)
# Where “and” joins values, the source holds several entries; their conditions need not be identical. Identical values can stand only once. Entries after “also recorded” stand apart in the source; their conditions may differ.
# Test: Safety and tolerability, Part A single ascending-dose phase in healthy participants
# Assay type: in vivo, human
# Protocol: A further two cohorts were recruited. […] Each individual participated in one treatment period only, with the exception of the food-effect cohort (cohort A3) in which there were two treatment periods separated by at least 7 days washout. Participants resided at the Clinical Research Unit (CRU) from 1 day ahead of dosing (day − 1) to day 3 and returned for a follow-up visit 5–7 days after their final dose. For all cohorts, doses were administered in the fasted state in the morning of day 1 of Treatment Period 1. In the food-effect cohort, doses were given 30 min after the start of a high-fat breakfast (973 calories total: approximately 150 protein calories, 250 carbohydrate calories, and 500–600 fat calories) on day 1 of Treatment Period 2. For cohorts A1 to A5 in Treatment Period 1, dosing occurred such that one pair (one active and one placebo) were dosed at least 24 h before the remaining participants. Continuation to dose those who remained was at the investigator’s discretion. Escalating doses were administered following satisfactory sponsor and investigator review of the safety and tolerability data (up to 48 h post-final dose) and PK data (up to 24 h post-final dose) from the lower dose levels.
# Safety and tolerability assessments included adverse event (AE) monitoring, physical examinations, laboratory assessments (hematology, clinical chemistry, and urinalysis), vital signs (blood pressure, pulse rate, and body temperature) and ECG.
# No formal statistical assessment was performed for the safety analysis.
# [1] = single and multiple doses, Parts A and B
# [2] = single dose 5 mg (1 × 5 mg), fasted
# [3] = single dose 20 mg (4 × 5 mg), fasted
# [4] = single dose 50 mg (1 × 50 mg), fasted
# [5] = single dose 50 mg (1 × 50 mg), fed
# [6] = single dose 50 mg (10 × 5 mg), fasted
# [7] = single dose 100 mg (2 × 50 mg), fasted
# [8] = single dose 200 mg (4 × 50 mg), fasted
# [9] = single dose 400 mg (8 × 50 mg), fasted
# [10] = treatment-emergent period, Parts A and B
smiles,measurement,setting,value
OC[C@H]1O[C@H](Sc2cncc(Br)c2)[C@H](O)[C@@H](n2cc(-c3cc(F)c(F)c(F)c3)nn2)[C@H]1O [GB1211],"TEAE Pain, participants","Part A 100 mg, fasted",0 n (%)
same,"TEAE Rash, participants","Part A 100 mg, fasted",0 n (%)
same,"TEAE Respiratory, thoracic and mediastinal disorders, participants","Part A 100 mg, fasted",0 n (%)
same,"TEAE Skin and subcutaneous tissue disorders, participants","Part A 100 mg, fasted",0 n (%)
same,"TEAE Wound, participants","Part A 100 mg, fasted",0 n (%)
same,"TEAE Back pain, participants","Part A 200 mg, fasted",0 n (%)
same,"TEAE Constipation, participants","Part A 200 mg, fasted",0 n (%)
same,"TEAE Cough, participants","Part A 200 mg, fasted",0 n (%)
same,"TEAE Decreased appetite, participants","Part A 200 mg, fasted",0 n (%)
same,"TEAE Diarrhea, participants","Part A 200 mg, fasted",0 n (%)
same,"TEAE Dry mouth, participants","Part A 200 mg, fasted",0 n (%)
same,"TEAE Dry skin, participants","Part A 200 mg, fasted",0 n (%)
same,"TEAE Dyspepsia, participants","Part A 200 mg, fasted",0 n (%)
same,"TEAE Gastrointestinal disorders, participants","Part A 200 mg, fasted",0 n (%)
same,"TEAE General disorders and administration site conditions, participants","Part A 200 mg, fasted",0 n (%)
same,"TEAE Headache, participants","Part A 200 mg, fasted",0 n (%)
same,"TEAE Infections and infestations, participants","Part A 200 mg, fasted",0 n (%)
same,"TEAE Injury, poisoning and procedural complications, participants","Part A 200 mg, fasted",0 n (%)
same,"TEAE Medical device site reaction, participants","Part A 200 mg, fasted",0 n (%)
same,"TEAE Metabolism and nutrition disorders, participants","Part A 200 mg, fasted",0 n (%)
same,"TEAE Musculoskeletal and connective tissue disorders, participants","Part A 200 mg, fasted",0 n (%)
same,"TEAE Nasopharyngitis, participants","Part A 200 mg, fasted",0 n (%)
same,"TEAE Nervous system disorders, participants","Part A 200 mg, fasted",0 n (%)
same,"TEAE Pain, participants","Part A 200 mg, fasted",0 n (%)
same,"TEAE Rash, participants","Part A 200 mg, fasted",0 n (%)
same,"TEAE Respiratory, thoracic and mediastinal disorders, participants","Part A 200 mg, fasted",0 n (%)
same,"TEAE Skin and subcutaneous tissue disorders, participants","Part A 200 mg, fasted",0 n (%)
same,"TEAE Wound, participants","Part A 200 mg, fasted",0 n (%)
same,"TEAE Back pain, participants","Part A 400 mg, fasted",0 n (%)
same,"TEAE Constipation, participants","Part A 400 mg, fasted",0 n (%)
same,"TEAE Cough, participants","Part A 400 mg, fasted",0 n (%)
same,"TEAE Decreased appetite, participants","Part A 400 mg, fasted",0 n (%)
same,"TEAE Diarrhea, participants","Part A 400 mg, fasted",0 n (%)
same,"TEAE Dry mouth, participants","Part A 400 mg, fasted",0 n (%)
same,"TEAE Dry skin, participants","Part A 400 mg, fasted",0 n (%)
same,"TEAE Dyspepsia, participants","Part A 400 mg, fasted",0 n (%)
same,"TEAE Gastrointestinal disorders, participants","Part A 400 mg, fasted",0 n (%)
same,"TEAE General disorders and administration site conditions, participants","Part A 400 mg, fasted",0 n (%)
same,"TEAE Headache, participants","Part A 400 mg, fasted",0 n (%)
same,"TEAE Infections and infestations, participants","Part A 400 mg, fasted",0 n (%)
same,"TEAE Injury, poisoning and procedural complications, participants","Part A 400 mg, fasted",0 n (%)
same,"TEAE Medical device site reaction, participants","Part A 400 mg, fasted",0 n (%)
same,"TEAE Metabolism and nutrition disorders, participants","Part A 400 mg, fasted",0 n (%)
same,"TEAE Musculoskeletal and connective tissue disorders, participants","Part A 400 mg, fasted",0 n (%)
same,"TEAE Nasopharyngitis, participants","Part A 400 mg, fasted",0 n (%)
same,"TEAE Nervous system disorders, participants","Part A 400 mg, fasted",0 n (%)
same,"TEAE Pain, participants","Part A 400 mg, fasted",0 n (%)
same,"TEAE Rash, no. of AEs","Part A 400 mg, fasted",1
same,"TEAE Rash, participants","Part A 400 mg, fasted",1 (16.7%) n (%)
same,"TEAE Respiratory, thoracic and mediastinal disorders, participants","Part A 400 mg, fasted",0 n (%)
same,"TEAE Skin and subcutaneous tissue disorders, no. of AEs","Part A 400 mg, fasted",1
same,"TEAE Skin and subcutaneous tissue disorders, participants","Part A 400 mg, fasted",1 (16.7%) n (%)
same,"TEAE Wound, participants","Part A 400 mg, fasted",0 n (%)
same,"Number of TEAEs, GB1211 group","Part A, all GB1211 doses",11
same,"Participants with TEAEs, GB1211 group","Part A, all GB1211 doses",8
same,Safety concerns,[1],No safety concerns were identified
same,Tolerability,[1],well tolerated
same,Number of TEAEs,[2],4
same,Participants discontinued due to TEAEs,[2],0 n (%)
same,Participants with SAEs,[2],0 n (%)
same,Participants with TEAEs,[2],3 (50.0) n (%) and 3 (50.0%) n (%)
same,Severity (all TEAEs): Mild,[2],3 (50.0) n (%)
same,Severity (all TEAEs): Moderate,[2],0 n (%)
same,Severity (all TEAEs): Severe,[2],0 n (%)
same,Severity (all TEAEs): Total,[2],3 (50.0) n (%)
same,Severity (possibly related to study treatment): Mild,[2],1 (16.7) n (%)
same,Severity (possibly related to study treatment): Moderate,[2],0 n (%)
same,Severity (possibly related to study treatment): Severe,[2],0 n (%)
same,Severity (possibly related to study treatment): Total,[2],1 (16.7) n (%)
same,Number of TEAEs,[3],1
same,Participants discontinued due to TEAEs,[3],0 n (%)
same,Participants with SAEs,[3],0 n (%)
same,Participants with TEAEs,[3],1 (16.7) n (%) and 1 (16.7%) n (%)
same,Severity (all TEAEs): Mild,[3],1 (16.7) n (%)
same,Severity (all TEAEs): Moderate,[3],0 n (%)
same,Severity (all TEAEs): Severe,[3],0 n (%)
same,Severity (all TEAEs): Total,[3],1 (16.7) n (%)
same,Severity (possibly related to study treatment): Mild,[3],0 n (%)
same,Severity (possibly related to study treatment): Moderate,[3],0 n (%)
same,Severity (possibly related to study treatment): Severe,[3],0 n (%)
same,Severity (possibly related to study treatment): Total,[3],0 n (%)
same,Number of TEAEs,[4],1
same,Participants discontinued due to TEAEs,[4],0 n (%)
same,Participants with SAEs,[4],0 n (%)
same,Participants with TEAEs,[4],1 (16.7) n (%) and 1 (16.7%) n (%)
same,Severity (all TEAEs): Mild,[4],1 (16.7) n (%)
same,Severity (all TEAEs): Moderate,[4],0 n (%)
same,Severity (all TEAEs): Severe,[4],0 n (%)
same,Severity (all TEAEs): Total,[4],1 (16.7) n (%)
same,Severity (possibly related to study treatment): Mild,[4],0 n (%)
same,Severity (possibly related to study treatment): Moderate,[4],0 n (%)
same,Severity (possibly related to study treatment): Severe,[4],0 n (%)
same,Severity (possibly related to study treatment): Total,[4],0 n (%)
same,Number of TEAEs,[5],1
same,Participants discontinued due to TEAEs,[5],0 n (%)
same,Participants with SAEs,[5],0 n (%)
same,Participants with TEAEs,[5],1 (16.7) n (%) and 1 (16.7%) n (%)
same,Severity (all TEAEs): Mild,[5],0 n (%)
same,Severity (all TEAEs): Moderate,[5],1 n (%) and 1 (16.7) n (%)
same,Severity (all TEAEs): Severe,[5],0 n (%)
same,Severity (all TEAEs): Total,[5],1 (16.7) n (%)
same,Severity (possibly related to study treatment): Mild,[5],0 n (%)
same,Severity (possibly related to study treatment): Moderate,[5],0 n (%)
same,Severity (possibly related to study treatment): Severe,[5],0 n (%)
same,Severity (possibly related to study treatment): Total,[5],0 n (%)
same,Number of TEAEs,[6],1
same,Participants discontinued due to TEAEs,[6],0 n (%)
same,Participants with SAEs,[6],0 n (%)
same,Participants with TEAEs,[6],1 (16.7) n (%) and 1 (16.7%) n (%)
same,Severity (all TEAEs): Mild,[6],1 (16.7) n (%)
same,Severity (all TEAEs): Moderate,[6],0 n (%)
same,Severity (all TEAEs): Severe,[6],0 n (%)
same,Severity (all TEAEs): Total,[6],1 (16.7) n (%)
same,Severity (possibly related to study treatment): Mild,[6],0 n (%)
same,Severity (possibly related to study treatment): Moderate,[6],0 n (%)
same,Severity (possibly related to study treatment): Severe,[6],0 n (%)
same,Severity (possibly related to study treatment): Total,[6],0 n (%)
same,Number of TEAEs,[7],2
same,Participants discontinued due to TEAEs,[7],0 n (%)
same,Participants with SAEs,[7],0 n (%)
same,Participants with TEAEs,[7],1 (16.7) n (%) and 1 (16.7%) n (%)
same,Severity (all TEAEs): Mild,[7],1 (16.7) n (%)
same,Severity (all TEAEs): Moderate,[7],0 n (%)
same,Severity (all TEAEs): Severe,[7],0 n (%)
same,Severity (all TEAEs): Total,[7],1 (16.7) n (%)
same,Severity (possibly related to study treatment): Mild,[7],1 (16.7) n (%)
same,Severity (possibly related to study treatment): Moderate,[7],0 n (%)
same,Severity (possibly related to study treatment): Severe,[7],0 n (%)
same,Severity (possibly related to study treatment): Total,[7],1 (16.7) n (%)
same,Number of TEAEs,[8],0
same,Participants discontinued due to TEAEs,[8],0 n (%)
same,Participants with SAEs,[8],0 n (%)
same,Participants with TEAEs,[8],0 n (%)
same,Severity (all TEAEs): Mild,[8],0 n (%)
same,Severity (all TEAEs): Moderate,[8],0 n (%)
same,Severity (all TEAEs): Severe,[8],0 n (%)
same,Severity (all TEAEs): Total,[8],0 n (%)
same,Severity (possibly related to study treatment): Mild,[8],0 n (%)
same,Severity (possibly related to study treatment): Moderate,[8],0 n (%)
same,Severity (possibly related to study treatment): Severe,[8],0 n (%)
same,Severity (possibly related to study treatment): Total,[8],0 n (%)
same,Number of TEAEs,[9],1
same,Participants discontinued due to TEAEs,[9],0 n (%)
same,Participants with SAEs,[9],0 n (%)
same,Participants with TEAEs,[9],1 (16.7) n (%) and 1 (16.7%) n (%)
same,Severity (all TEAEs): Mild,[9],1 (16.7) n (%)
same,Severity (all TEAEs): Moderate,[9],0 n (%)
same,Severity (all TEAEs): Severe,[9],0 n (%)
same,Severity (all TEAEs): Total,[9],1 (16.7) n (%)
same,Severity (possibly related to study treatment): Mild,[9],1 (16.7) n (%)
same,Severity (possibly related to study treatment): Moderate,[9],0 n (%)
same,Severity (possibly related to study treatment): Severe,[9],0 n (%)
same,Severity (possibly related to study treatment): Total,[9],1 (16.7) n (%)
same,"Clinical laboratory evaluation, vital signs, ECG or physical examination",single or multiple GB1211 doses,no treatment- or dose-related trend; also recorded: no clinically significant finding
same,Serious AEs or severe AEs,[10],no severe TEAEs or serious AEs reported
same,Study discontinuations due to AEs,[10],no study discontinuations due to AEs
